“Also recorded” adds a separate entry of the source.
Legend:
[1] = Patient-reported outcomes, anxiety, depression, PTSD (Calm / Serenity); assay type: in vivo, patients; details: people with anxiety
Description: FIGS. 2 and 3 show Oblend® Treatment Family (Oblend Tx) Calm formulations and Oblend Tx Serenity formulations. These tables include base formulations (BASE) for subjects suffering from anxiety, depression, and PTSD. The BASE Formulation is selected from Calm or Serenity Tables based on the subject's symptoms.
Some patients respond well to LIM and LOL while others respond better to more sedative terpenes like MYR and TPN. In most cases, patients with anxiety respond well to Calm Tx formulations. […] If a patient suffering from anxiety initially began treatment with the Calm Base and experienced some symptom relief, then, this patient continued taking Calm formulations from Calm or a personalized formulation with a similar terpene profile as Calm.
(§1) FIG. 10 is a Pain Management Table, FIG. 11 is an Insomnia Table, FIG. 12 is a Cancer Treatment Support Table, FIG. 13 is an Anxiety, Depression, PTSD Management Table, FIG. 14 is a Chronic Obstructive Pulmonary Disease (COPD) Table, and FIG. 15 is a Irritable Bowel Syndrome Table. These are symptom-specific tables which summarize the pharmaceutical compositions where two or more patients, grouped by specific composition have reported moderate to substantial symptom improvement with the use of the specified composition for periods of use ranging from 1 to 24 months. […]

[2] = Patient-reported outcomes, insomnia and sleep (Rest); assay type: in vivo, patients; details: THC small amount (0.25-10 mg/ml); terpenes increased by 0.25-3.5 mg/mL
Description: (§2) FIG. 10 is a Pain Management Table, FIG. 11 is an Insomnia Table, FIG. 12 is a Cancer Treatment Support Table, FIG. 13 is an Anxiety, Depression, PTSD Management Table, FIG. 14 is a Chronic Obstructive Pulmonary Disease (COPD) Table, and FIG. 15 is a Irritable Bowel Syndrome Table. These are symptom-specific tables which summarize the pharmaceutical compositions where two or more patients, grouped by specific composition have reported moderate to substantial symptom improvement with the use of the specified composition for periods of use ranging from 1 to 24 months. With respect to the Tables in FIGS. 10-15, the amounts specified in the tables represent the mass in milligrams (mg) per 1.0 milliliter (mL). Dosing protocols vary and may involve a dosing volume ranging from 0.1 ml to 1 ml with a frequency of once, twice or three times a day (QD, BID, or TID, respectively), and in some cases used on an as-needed basis.

[3] = Patient-reported side effects and tolerability
[4] = Patient-reported outcomes, gastrointestinal disorders (Wisdom); assay type: in vivo, patients; details: 15-100 mg/mL added
Description: Studies have shown that the Wisdom BASE formulations relieve symptoms associated with gastrointestinal disorders, such as IBS and others.
as §2

[5] = Patient-reported outcomes, pain and inflammation (Relief); assay type: in vivo, patients; details: pain / inflammatory conditions (pain and anxiety)
Description: (§3) Relief includes Base Formulations used in connection with more than one patient suffering from pain and/or inflammatory diseases including neuropathic, and nociceptive pain caused by a range of injuries, arthritis, fibromyalgia, fibrosis, shingles, diabetes, and Lyme disease. Some patients suffering from pain were also suffering from COPD. […] For example, in the Table FIG. 1, Base Formulation TF8 has twice as much terpenes as TF7. […] If a patient was experience pain resulting from an inflammatory condition, such as COPD, then it was not necessary to include THC in the patient's formulations. However, if the patient was suffering from a type of pain such as nociceptive or neuropathic, the use of THC was beneficial. Increasing alpha pinene will be beneficial for patients with COPD.
In addition, even when a patient was reporting good symptom relief, patient dosages were titrated up, including both dosing frequency and dose size, to determine whether better relief could be achieved. […] Thereafter, the HCP would revert the formulation back to the previous dosage and constituent amounts. Treatment then continues forward at that reverted level.
as §2

[6] = Patient-reported outcomes, COPD; assay type: in vivo; details: patients suffering from COPD
Description: as §3, §1

| SMILES | sleep on adding or increasing the ingredient [2] | patient outcomes on adding the ingredient to the formulation [5] | other results |
| --- | --- | --- | --- |
| C=C(C)[C@H]1CC=C(C)CC1 [limonene, Limonene] | – | – | anxiety response to the terpene [1]: make some people more anxious |
| C=CC(C)(O)CCC=C(C)C (stereo not shown) [linalool, Linalool] | improves sleep | – | – |
| CCCCCc1cc(O)c2c(c1)OC(C)(C)C1CC=C(C)CC21 (stereo not shown) [Delta-8, delta-8-tetrahydrocannabinol] | – | – | side-effects compared with Delta-9 THC ([3]; according to most patients): fewer side-effects |
| C=C(C)[C@@H]1CCC(C)=C[C@H]1c1c(O)cc(CCCCC)cc1O [CBD, Cannabidiol] | – | – | gastrointestinal symptom relief on adding the ingredient [4]: improved symptom relief |
| C=CC(C)(O)CCC=C(C)CCC=C(C)C (stereo not shown) [nerolidol, Nerolidol] | increased the duration and quality of sleep | – | allergy ([3]; ingredient of most formulations): some patients are allergic |
| C=C1CC/C=C(\C)CC[C@@H]2[C@@H]1CC2(C)C [beta Caryophyllene, Beta Caryophyllene] | – | significant improvement in symptom relief; also recorded: increased patient outcomes | COPD outcomes on increasing the terpene [6]: significantly improved outcomes |
| CCCCCc1cc(O)c2c(c1)OC(C)(C)c1ccc(C)cc1-2 [CBN, Cannabinol] | – | favorable patient outcomes increased | – |
| CCCCCc1cc(O)c2c(c1)OC(C)(CCC=C(C)C)C=C2 (stereo not shown) [CBC, Cannabichromene] | – | in some cases, patients reported a reduction in symptoms; also recorded: favorable patient outcomes improved dramatically | – |
| CC1=CCC(=C(C)C)CC1 [terpinolene, Terpinolene] | increased the duration and quality of sleep; also recorded: improves sleep | – | – |
| CCCCCc1cc(O)c2c(c1)OC(C)(C)[C@@H]1CCC(C)=C[C@@H]21 [THC, Tetrahydrocannabinol, reference compound] | patients were able to fall asleep; also recorded: improves sleep | improved pain relief | – |
| C=CC(=C)CCC=C(C)C [myrcene, Myrcene] | increased the duration and quality of sleep; also recorded: improves sleep | – | – |
| CCCCCc1cc(O)c(C/C=C(\C)CCC=C(C)C)c(O)c1 [CBG, Cannabigerol] | – | some patients reported a reduction in symptoms; also recorded: favorable patient outcomes increased | – |
| CC1=CCC2CC1C2(C)C (stereo not drawn) [alpha-pinene, Alpha Pinene] | – | – | COPD outcomes on increasing the terpene [6]: significantly improved outcomes |

Source: patent US20230390310A1, “PERSONALIZED, PRECISE, CONSISTENT BOTANICAL FORMULATIONS ON DEMAND” (ALTOPA, INC, priority 2022, published 2023)
